Test results reported in patent US20240287046A1, “COMPOUNDS AND RADIOLIGANDS FOR TARGETING NEUROTENSIN RECEPTOR AND USES THEREOF” (Full-Life Technologies HK Limited, priority 2022, published 2024).

Assays:
[1] = molecular target: T1, human NTSR-1 (Homo sapiens (Human), UniProt P30989); assay: radioligand competitive binding assay using ^177Lu labeled C-1 as reference radioligand
Experimental: The binding affinities of test compounds were determined by a radioligand competitive binding assay using ^177Lu labeled C-1 as the reference radioligand.
Briefly, 100 μL HT-29 cells expressing human NTSR-1 at a density of 1˜2×10^6 cells/mL were mixed with binding buffer (RPMI-1640 medium supplemented with 0.25% bovine serum albumin) in each well of the 96-well filter plate (Millipore). Then the cells in each well were incubated with ^177Lu—C-1 (0.55 μCi/well) and the test compound under 37° C. for 1 hr (n=3). After incubation, unbound ^177Lu—C-1 and the test compound in each well was removed by filtration using a Multiscreen vacuum manifold (Millipore) and the cells were further rinsed with the binding buffer for 5 times. The cells from each well were then collected and radioactivity of the cells in each well was individually measured by y counter (2480 WIZARD2, PerkinElmer). The best-fit IC50 value of test compounds (inhibitory concentration when 50% of the bound ^177Lu—C-1 on cells were displaced) were calculated by fitting the data with nonlinear regression using GraphPad Prism 8.0.1.

[2] = molecular target: T1, human NTSR-1; assay: FLIPR assay, inhibition of Neurotensin-induced intracellular-calcium mobilization; assay type: cell-based; conditions: HEK293 cells stably expressing human NTSR-1, mean; read-out: IC50 (nM) in FLIPR Assays
Experimental: Binding affinities of the representative compounds were also evaluated by FLIPR assay. Neurotensin receptor 1 belongs to the G-protein coupled receptors (GPCR) family. Activation of NTSR-1 by its ligand Neurotensin can induce intracellular-calcium mobilization. In FLIPR assay, the test compound and Neurotensin were incubated together with cells expressing NTSR-1 to measure inhibition of the intracellular-calcium mobilization by the test compound so that to evaluate its binding affinity.
Briefly, HEK293 cells stably expressing human NTSR-1 were plated in 384-well plates. 20 ul cell suspension at a concentration of 10×10^5 per ml was seeded in each well and incubated at 37° C. 5% CO2 overnight. Then the cells in each well were mixed with 20 ul probenecid assay buffer, 20 ul 8 uM Fluo-4 Direct™ Loading Buffer, 6×EC80 of Neurotensin and 10 μl of the diluted test compound, and incubated at 37° C. 5% CO2 for 50 min followed by incubation at room temperature for 10 min. The plate was then subject to FLIPR analysis.

[3] = system: ASPC-1 tumor-bearing mice; assay: Biodistribution of radionuclide labeled complexes in ASPC-1 tumor-bearing mice; assay type: in vivo, BALB/c nude mice; conditions: ^177Lu-labeled complex
Method in brief: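 BALB/c nude mice bore subcutaneous flank xenografts from ~4×10^6 NTSR-1-expressing cells, grown 2-4 weeks to ~0.05-0.50 g. Labeled compound, ~30-50 μCi (30-250 μCi/nmol specific activity) in 0.9% NaCl, was given by tail vein; organs were excised, weighed and γ-counted at various times for % ID and % ID/g.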

[4] = system: pancreatic cancer patients; conditions: ^177Lu-chelated form; small number of pancreatic cancer patients; cited from earlier work
[5] = system: ASPC-1 tumor-bearing mice; assay: PET/CT imaging of ^68Ga-labeled complexes; assay type: in vivo; conditions: over 180 minutes
Experimental: ASPC-1 tumor-bearing mice were IV-injected with 150 μCi of ^68Ga-labeled compounds, anesthetized under 2% isoflurane/oxygen gas and placed on the scanner. PET images were acquired in one bed position for 10 min using an animal PET/SPECT/CT (Inliview-3000B). Whole-body PET images were acquired at 30, 60, 120 and 180 minutes after injection of the radiotracers.

T1 sequence (P30989 whole entry): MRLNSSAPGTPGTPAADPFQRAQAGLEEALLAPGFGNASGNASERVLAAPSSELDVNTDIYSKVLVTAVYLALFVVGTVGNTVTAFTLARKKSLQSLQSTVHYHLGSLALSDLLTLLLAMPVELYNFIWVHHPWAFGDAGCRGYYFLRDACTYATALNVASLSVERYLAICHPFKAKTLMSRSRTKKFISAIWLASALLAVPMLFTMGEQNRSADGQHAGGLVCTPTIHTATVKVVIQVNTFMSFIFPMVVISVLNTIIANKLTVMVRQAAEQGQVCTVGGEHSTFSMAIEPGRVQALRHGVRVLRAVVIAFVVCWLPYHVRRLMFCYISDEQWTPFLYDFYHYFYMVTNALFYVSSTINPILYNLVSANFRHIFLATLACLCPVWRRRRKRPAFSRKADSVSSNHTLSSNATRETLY

| Relative Binding Affinity ([1]; Mean IC50 of C-1/Mean IC50 of the test compound) | potency relative to SR142948 ([1]; competitive radioligand binding assay using HT-29 cells) | IC50 [2] | AUC (0-72 h) ratio Tumor/Blood [3] | AUC (0-72 h) ratio Tumor/Kidney [3] | AUC (0-72 h) ratio Tumor/Liver [3] | AUC (0-72 h) ratio Tumor/Lung [3] | tumor uptake/retention compared to ^68Ga—C-5 (PET/CT) ([5]; ASPC-1 tumor-bearing mice) | tumor to normal contrast compared to ^68Ga—C-5 (PET/CT) ([5]; such as tumor to liver) | Compound | tumor uptake of the radioligand [4] |
| --- | --- | --- | --- | --- | --- | --- | --- | --- | --- | --- |
| 7.2 | about 40% | 45.4 nM | 9.0 | 8.80 | 7.61 | 14.2 | – | – | COc1cccc(OC)c1-c1cc(C(=O)NC2(C(=O)O)C3CC4CC(C3)CC2C4)nn1-c1ccc(C(=O)N(C)CCCN(C)CCCN(C)C(=O)CN2CCN(CC(=O)O)CCN(CC(=O)O)CCN(CC(=O)O)CC2)cc1C(C)C (stereo not shown) [Compound C-2, 2,2′,2″-(10-(2-((3-((3-(4-(3-((2-carboxyadamantan-2-yl)carbamoyl)-5-(2,6-dimethoxyphenyl)-1H-pyrazol-1-yl)-3-isopropyl-N-methylbenzamido)propyl)(methyl)amino)propyl)(methyl)amino)-2-oxoethyl)-1,4,7,10-tetraazacyclododecane-1,4,7-triyl)triacetic acid, reference compound] | clearly observed |
| – | – | – | – | – | – | – | stronger tumor uptake/retention | better tumor to normal contrast | COc1cccc(OC)c1-c1cc(C(=O)NC2(C(=O)O)C3CC4CC(C3)CC2C4)nn1-c1ccc(N(CCCN(C)C)C(=O)COCCOCCNC(=O)CN2CCN(CC(=O)[O-])CCN(CC(=O)[O-])CCN(CC(=O)[O-])CC2)cc1C(C)C.[68Ga+3] (stereo not shown) [^68Ga—I-6] | – |
